Target: T1, glucocorticoid receptor (Homo sapiens, UniProt P04150)
T1 construct: A549 cells stably transfected with a reporter gene; endogenous in cells; host or cells: A549 cells
T1 sequence (P04150 1-777): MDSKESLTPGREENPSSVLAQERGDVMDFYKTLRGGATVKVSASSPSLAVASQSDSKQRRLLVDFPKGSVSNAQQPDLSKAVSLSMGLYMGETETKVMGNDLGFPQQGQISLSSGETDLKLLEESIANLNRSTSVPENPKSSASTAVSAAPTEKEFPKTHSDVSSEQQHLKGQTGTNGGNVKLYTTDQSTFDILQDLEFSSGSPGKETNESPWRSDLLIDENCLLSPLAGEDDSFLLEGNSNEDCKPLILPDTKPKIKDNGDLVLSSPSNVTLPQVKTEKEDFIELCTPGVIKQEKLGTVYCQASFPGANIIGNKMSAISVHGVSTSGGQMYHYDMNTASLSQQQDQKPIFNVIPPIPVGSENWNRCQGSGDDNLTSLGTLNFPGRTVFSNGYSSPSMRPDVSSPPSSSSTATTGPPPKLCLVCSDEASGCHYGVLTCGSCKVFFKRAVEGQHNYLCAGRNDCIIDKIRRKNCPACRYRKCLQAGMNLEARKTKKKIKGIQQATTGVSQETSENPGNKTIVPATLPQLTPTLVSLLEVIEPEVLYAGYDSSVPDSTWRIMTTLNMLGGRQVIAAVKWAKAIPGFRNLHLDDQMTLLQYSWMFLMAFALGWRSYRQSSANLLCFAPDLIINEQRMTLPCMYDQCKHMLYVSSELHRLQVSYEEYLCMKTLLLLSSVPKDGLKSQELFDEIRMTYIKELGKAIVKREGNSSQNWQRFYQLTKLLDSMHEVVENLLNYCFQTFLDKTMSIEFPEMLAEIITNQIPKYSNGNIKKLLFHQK
Experiment: Assay for transactivation activity of the glucocorticoid agonists (MMTV-LTR renilla luciferase reporter in A549 cells)
Type: cell-based
Conditions: compound 6 hour at 37° C., read-out: maximal response relative to Dexamethasone (100%) (transactivation)
Description: Assay for Transactivation Activity of the Glucocorticoid Agonists
The functional assay based on that described by R. J. H. Austin et al., Eur Resp J. (2002), 20, 1386-1392 measures the ability of compounds to directly transactivate gene expression. A549 cells stably transfected with a reporter gene containing the glucocorticoid responsive region of the mouse mammary tumour virus long terminal repeat (MMTV-LTR) coupled to renilla luciferase were treated with test compounds at appropriate doses for 6 hour at 37° C. The amount of luciferase activity present within the cells is then determined by measuring the light emitted following incubation with a suitable substrate. Dose response curves were constructed from which EC50 values were estimated and from which maximal responses are calculated relative to Dexamethasone (100%).

Structure (SMILES) | Emax
CC[C@H]1CC[C@@H](OC(=O)O[C@]2(C(=O)OCF)[C@H](C)C[C@H]3[C@@H]4C[C@H](F)C5=CC(=O)C=C[C@]5(C)[C@@]4(F)[C@@H](O)C[C@@]32C)CC1 (relative stereo) [Example 36, Fluoromethyl(6α,11β,16α,17α)-17-({[(cis-4-ethylcyclohexyl)oxy]carbonyl}oxy)-6,9-difluoro-11-hydroxy-16-methyl-3-oxoandrosta-1,4-diene-17-carboxylate] | < 25%
CC[C@H]1CC[C@H](OC(=O)O[C@]2(C(=O)OCF)[C@H](C)C[C@H]3[C@@H]4C[C@H](F)C5=CC(=O)C=C[C@]5(C)[C@@]4(F)[C@@H](O)C[C@@]32C)CC1 (relative stereo) [Example 37, Fluoromethyl(6α,11β,16α,17α)-17-({[(trans-4-ethylcyclohexyl)oxy]carbonyl}oxy)-6,9-difluoro-11-hydroxy-16-methyl-3-oxoandrosta-1,4-diene-17-carboxylate] | < 25%
CCC(CC)OC(=O)O[C@]1(C(=O)OCF)[C@H](C)C[C@H]2[C@@H]3C[C@H](F)C4=CC(=O)C=C[C@]4(C)[C@@]3(F)[C@@H](O)C[C@@]21C [Example 4, Fluoromethyl(6α,11β,16α,17α)-17-({[(1-ethylpropyl)oxy]carbonyl}oxy)-6,9-difluoro-11-hydroxy-16-methyl-3-oxoandrosta-1,4-diene-17-carboxylate] | < 25%
C[C@@H]1C[C@H]2[C@@H]3C[C@H](F)C4=CC(=O)C=C[C@]4(C)[C@@]3(F)[C@@H](O)C[C@]2(C)[C@@]1(OC(=O)OCC(C)(C)C)C(=O)OCF [Example 7, Fluoromethyl(6α,11β,16α,17α)-17-({[(2,2-dimethylpropyl)oxy]carbonyl}oxy)-6,9-difluoro-11-hydroxy-16-methyl-3-oxoandrosta-1,4-diene-17-carboxylate] | < 25%
CC1CCCCC1OC(=O)OC1(C(=O)OCF)C(C)CC2C3CC(F)C4=CC(=O)C=CC4(C)C3(F)C(O)CC21C (stereo not drawn) [Example 10, Fluoromethyl(6α,11β,16α,17α)-6,9-difluoro-11-hydroxy-16-methyl-17-[({[(1SR,2RS)-2-methylcyclohexyl]oxy}carbonyl)oxy]-3-oxoandrosta-1,4-diene-17-carboxylate] | < 25%
CC(C)C1CCC(OC(=O)O[C@]2(C(=O)OCF)[C@H](C)C[C@H]3[C@@H]4C[C@H](F)C5=CC(=O)C=C[C@]5(C)[C@@]4(F)[C@@H](O)C[C@@]32C)CC1 (stereo partly drawn) [Example 11, Fluoromethyl(6α,11β,16α,17α)-6,9-difluoro-11-hydroxy-16-methyl-17-[({[4-(1-methylethyl)cyclohexyl]oxy}carbonyl)oxy]-3-oxoandrosta-1,4-diene-17-carboxylate] | < 25%
CC1CC2C3CC(F)C4=CC(=O)C=CC4(C)C3(F)C(O)CC2(C)C1(OC(=O)OC1CC2CCC1C2)C(=O)OCF (stereo not drawn) [Example 12, Fluoromethyl(6α,11β,16α,17α)-17-({[(1RS,2RS,4SR)-bicyclo[2.2.1]hept-2-yloxy]carbonyl}oxy)-6,9-difluoro-11-hydroxy-16-methyl-3-oxoandrosta-1,4-diene-17-carboxylate] | < 25%
C[C@@H]1C[C@H]2[C@@H]3C[C@H](F)C4=CC(=O)C=C[C@]4(C)[C@@]3(F)[C@@H](O)C[C@]2(C)[C@@]1(OC(=O)OC1CCCCCCC1)C(=O)OCF [Example 16, Fluoromethyl(6α,11β,16α,17α)-17-{[(cyclooctyloxy)carbonyl]oxy}-6,9-difluoro-11-hydroxy-16-methyl-3-oxoandrosta-1,4-diene-17-carboxylate] | < 25%
C[C@@H]1C[C@H](C)C[C@H](OC(=O)O[C@]2(C(=O)OCF)[C@H](C)C[C@H]3[C@@H]4C[C@H](F)C5=CC(=O)C=C[C@]5(C)[C@@]4(F)[C@@H](O)C[C@@]32C)C1 [Example 17, Fluoromethyl(6α,11β,16α,17α)-17-[({[(1S,3R,5S)-3,5-dimethylcyclohexyl]oxy}carbonyl)oxy]-6,9-difluoro-11-hydroxy-16-methyl-3-oxoandrosta-1,4-diene-17-carboxylate] | < 25%
COC1CCCCC1OC(=O)OC1(C(=O)OCF)C(C)CC2C3CC(F)C4=CC(=O)C=CC4(C)C3(F)C(O)CC21C (stereo not drawn) [Example 18, Fluoromethyl(6α,11β,16α,17α)-6,9-difluoro-11-hydroxy-16-methyl-17-[({[(1RS,2RS)-2-(methyloxy)cyclohexyl]oxy}carbonyl)oxy]-3-oxoandrosta-1,4-diene-17-carboxylate] | < 25%
C[C@@H]1C[C@H]2[C@@H]3C[C@H](F)C4=CC(=O)C=C[C@]4(C)[C@@]3(F)[C@@H](O)C[C@]2(C)[C@@]1(OC(=O)OC1CCCC(C)(C)C1)C(=O)OCF (stereo partly drawn) [Example 19, Fluoromethyl(6α,11β,16α,17α)-17-({[(3,3-dimethylcyclohexyl)oxy]carbonyl}oxy)-6,9-difluoro-11-hydroxy-16-methyl-3-oxoandrosta-1,4-diene-17-carboxylate] | < 25%
CCC(OC(=O)O[C@]1(C(=O)OCF)[C@H](C)C[C@H]2[C@@H]3C[C@H](F)C4=CC(=O)C=C[C@]4(C)[C@@]3(F)[C@@H](O)C[C@@]21C)C1CCCC1 (stereo partly drawn) [Example 20, Fluoromethyl(6α,11β,16α,17α)-17-({[(1-cyclopentylpropyl)oxy]carbonyl}oxy)-6,9-difluoro-11-hydroxy-16-methyl-3-oxoandrosta-1,4-diene-17-carboxylate] | < 25%
CC(OC(=O)O[C@]1(C(=O)OCF)[C@H](C)C[C@H]2[C@@H]3C[C@H](F)C4=CC(=O)C=C[C@]4(C)[C@@]3(F)[C@@H](O)C[C@@]21C)C1CCCC1 (stereo partly drawn) [Example 21, Fluoromethyl(6α,11β,16α,17α)-17-({[(1-cyclopentylethyl)oxy]carbonyl}oxy)-6,9-difluoro-11-hydroxy-16-methyl-3-oxoandrosta-1,4-diene-17-carboxylate] | < 25%
CCCC(CCC)OC(=O)O[C@]1(C(=O)OCF)[C@H](C)C[C@H]2[C@@H]3C[C@H](F)C4=CC(=O)C=C[C@]4(C)[C@@]3(F)[C@@H](O)C[C@@]21C [Example 22, Fluoromethyl(6α,11β,16α,17α)-6,9-difluoro-11-hydroxy-16-methyl-3-oxo-17-({[(1-propylbutyl)oxy]carbonyl}oxy)androsta-1,4-diene-17-carboxylate] | < 25%
CC(OC(=O)O[C@]1(C(=O)OCF)[C@H](C)C[C@H]2[C@@H]3C[C@H](F)C4=CC(=O)C=C[C@]4(C)[C@@]3(F)[C@@H](O)C[C@@]21C)C(C)(C)C (stereo partly drawn) [Example 23, Fluoromethyl(6α,11β,16α,17α)-6,9-difluoro-11-hydroxy-16-methyl-3-oxo-17-({[(1,2,2-trimethylpropyl)oxy]carbonyl}oxy)androsta-14-diene-17-carboxylate] | < 25%
C[C@@H]1C[C@H]2[C@@H]3C[C@H](F)C4=CC(=O)C=C[C@]4(C)[C@@]3(F)[C@@H](O)C[C@]2(C)[C@@]1(OC(=O)OCC1C(C)(C)C1(C)C)C(=O)OCF [Example 24, Fluoromethyl(6α,11β,16α,17α)-6,9-difluoro-11-hydroxy-16-methyl-3-oxo-17-[({[(2,2,3,3-tetramethylcyclopropyl)methyl]oxy}carbonyl)oxy]androsta-1,4-diene-17-carboxylate] | < 25%
CCCC(OC(=O)O[C@]1(C(=O)OCF)[C@H](C)C[C@H]2[C@@H]3C[C@H](F)C4=CC(=O)C=C[C@]4(C)[C@@]3(F)[C@@H](O)C[C@@]21C)C(C)C (stereo partly drawn) [Example 25, Fluoromethyl(6α,11β,16α,17α)-6,9-difluoro-11-hydroxy-16-methyl-17-[({[1-(1-methylethyl)butyl]oxy}carbonyl)oxy]-3-oxoandrosta-1,4-diene-17-carboxylate] | < 25%
C[C@@H]1C[C@H]2[C@@H]3C[C@H](F)C4=CC(=O)C=C[C@]4(C)[C@@]3(F)[C@@H](O)C[C@]2(C)[C@@]1(OC(=O)OC1C(C)(C)C1(C)C)C(=O)OCF [Example 26, Fluoromethyl(6α,11β,16α,17α)-6,9-difluoro-11-hydroxy-16-methyl-3-oxo-17-({[(2,2,3,3-tetramethylcyclopropyl)oxy]carbonyl}oxy)androsta-1,4-diene-17-carboxylate] | < 25%

From US20080249077A1, “17.Beta.-Fluoromethoxycarbonyl-Androst-4-En-3-One Compounds With a 17.Alpha.-Carbonate Sustituent” (priority 2005, published 2008)
